Measured values: patent publication US5605905A, “Antitumoral compounds” (Universidad Complutense de Madrid, priority 1992, dated 1997)
Values after ≈ are worked out from the molar mass of the structure shown.

Tests used:
P-388 cells = experiment: Assay against P-388 cells (lymphoid neoplasm from DBA/2 mouse), cell count after three days; type: cell-based; settings: P388, 72 h, 1×10^4 cells per well, three days of incubation, triplicate
Experimental: Compounds were diluted in DMSO/MeOH/Acetone (1:4.5:4.5) and they were tested at different concentrations. The solvent was allowed to evaporate before the cells were seeded.
The following antitumoral assay, employing the current screening protocol has been carried out using the following cell line:
P-388 (lymphoid neoplasm from DBA/2 mouse).
Assay Against P-388 Cells (Lymphoidneoplasm from DBA/2 Mouse )
P-388 cells were seeded into 16 mm wells at 1×10^4 cells per well in 1 ml aliquots of MEM 10C containing different concentrations of the compound. All determinations were carried out in triplicate. A separate set of cultures without drug was counted daily to ensure that the cells remained in exponential growth over the period of observation. After three days of incubation, cells were counted and the IC50 was determined.

Gram positive bacteria = settings: background, literature; cited from earlier work
thymidylate synthetase = settings: background, literature; cited from earlier work
[1] = background statement, no test described; cited from earlier work

SMILES | IC50 (P-388 cells) | also measured
Cc1cc(=O)[nH]c2c1C(=O)c1c(-c3ccc(N(C)C)cc3)ccnc1C2=O [Compound 6, 5-(p-dimethylaminophenyl)-4-methyl-1H-1,8-diazaanthracene-2,9,10-trione] | 1 µg/mL (≈ 2.78 µM) | –
Cc1ccnc2c1C(=O)c1c(C)cc(=O)[nH]c1C2=O [Compound 4, 4,5-dimethyl-1H-1,8-diazaanthracene-2,9,10-trione] | 1 µg/mL (≈ 3.93 µM) | –
CCCc1c2c([nH]c(=O)c1C)C(=O)c1[nH]c(=O)c(C)c(CCC)c1C2=O [Diazaquinomicyn A] | – | activity against Gram positive bacteria (Gram positive bacteria): good activity; capacity to inhibit the thymidylate synthetase (thymidylate synthetase): capacity to inhibit; antitumoral activity [1]: inactive
CCc1cnc2c(c1)C(=O)c1c(C)cc(=O)[nH]c1C2=O [Compound 5, 6-ethy-4-methyl-1H-1,8-diazaanthracene-2,9,10-trione] | 0.5 µg/mL (≈ 1.86 µM) | –
Cc1cc(=O)[nH]c2c1C(=O)C1=C(NC=CC1c1ccccc1)C2=O (centres unmarked) [Compound 2, 4-methyl-5-phenyl-5,8-dihydro-1H-1,8-diazaanthracene-2,9,10-trione] | 0.25 µg/mL (≈ 0.785 µM) | –
CCC1C(C)=CNC2=C1C(=O)c1c(C)cc(=O)[nH]c1C2=O (centres unmarked) [Compound 1, 4,6-dimethyl-5-5,8-dihydro-1H-1,8-diazaanthracene-2,9,10-trione] | 1 µg/mL (≈ 3.52 µM) | –
Cc1cc(=O)[nH]c2c1C(=O)C1=C(NC=CC1c1ccc(N(C)C)cc1)C2=O (centres unmarked) [Compound 3, 5-(4-Dimethylamino-phenyl) 4-methyl-5,8-dihydro-1H-1,8-diazaanthracene-2,9,10-trione] | 20 µg/mL (≈ 55.3 µM) | –
CCc1cc2c([nH]c1=O)C(=O)c1ncc(C)cc1C2=O [Compound 7, 3-ethyl-6-methyl-1H-1,8-diazaanthracene-2,9,10-trione] | 0.2 µg/mL (≈ 0.746 µM) | –
Cc1cc2c([nH]c1=O)C(=O)c1ccccc1C2=O [Compound 8, 3-Methyl-1H-1azaanthracene-2,9,10-trione] | 0.2 µg/mL (≈ 0.836 µM) | –
